Data published in PubChem BioAssay (NCI).
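Each compound was tested at five concentrations against cells in 96-well plates for 48 hours. The concentration for 50% growth inhibition is given as GI50. TGI marks complete inhibition of growth.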

Assays:
Assay in all cases: NCI anticancer screen, dose series, 48 h
[1] = system: SN12C renal
[2] = system: PC-3 prostate
[3] = system: A498 renal
[4] = system: OVCAR-4 ovarian
[5] = system: IGROV1 ovarian
[6] = system: SW-620 colon
[7] = system: OVCAR-5 ovarian
[8] = system: NCI/ADR-RES ovarian
[9] = system: NCI-H226 lung
[10] = system: NCI-H23 lung

Structure (SMILES)	TGI [1]	TGI [2]	TGI [3]	TGI [4]	TGI [5]	TGI [6]	TGI [7]	TGI [8]	TGI [9]	TGI [10]	GI50 [1]	GI50 [2]	GI50 [3]	GI50 [4]	GI50 [5]	GI50 [6]	GI50 [7]	GI50 [8]	GI50 [9]	GI50 [10]
O=C1C=C(Br)c2c(-c3ccccc3)oc3cccc1c23	> 100 µM	> 100 µM	> 100 µM	> 100 µM	> 100 µM	> 100 µM	> 100 µM	> 100 µM	> 100 µM	> 100 µM	–	–	–	–	–	–	–	–	–	–
CN(C)CCCN1c2ccccc2CCc2ccc(Cl)cc21	16.3 µM	15.4 µM	19.4 µM	16.4 µM	22 µM	16 µM	16.2 µM	14.8 µM	22.5 µM	21.9 µM	3.26 µM	2.98 µM	5.47 µM	3.64 µM	7.09 µM	3.92 µM	4.07 µM	3.33 µM	7.22 µM	7.51 µM
O=C(c1ccccc1)C(CN1CCOCC1)c1ccccc1 (stereo not drawn)	4.47 µM	13.3 µM	11.2 µM	19.3 µM	4.24 µM	1.28 µM	5.3 µM	14.1 µM	9.33 µM	12.3 µM	1.73 µM	2.93 µM	2.49 µM	3.88 µM	1.75 µM	0.372 µM	2.65 µM	2.83 µM	2.79 µM	2.79 µM
Cc1cc(N/N=C/c2nc(-c3ccc(Br)cc3)oc2C)c2cc(Cl)ccc2n1	> 100 µM	> 100 µM	> 100 µM	> 100 µM	> 100 µM	> 100 µM	> 100 µM	> 100 µM	> 100 µM	> 100 µM	> 100 µM	> 100 µM	> 100 µM	> 100 µM	> 100 µM	> 100 µM	> 100 µM	> 100 µM	> 100 µM	> 100 µM
O=C(/C(=C/c1ccccc1)CN1CCCCC1)c1ccccc1	4.76 µM	9.26 µM	3.1 µM	9.53 µM	6.25 µM	1.53 µM	3.98 µM	4.64 µM	3.82 µM	4.3 µM	1.67 µM	2.2 µM	1.63 µM	2.05 µM	1.89 µM	0.398 µM	1.98 µM	1.06 µM	1.53 µM	1.49 µM
N/C(=N\N=C\c1ccc(-c2ccccc2)cc1)N[N+](=O)[O-]	> 100 µM	> 100 µM	7.58 µM	> 100 µM	> 100 µM	> 100 µM	> 100 µM	> 86.1 µM	> 100 µM	> 100 µM	7.3 µM	3.81 µM	0.418 µM	10.8 µM	28 µM	0.796 µM	> 100 µM	1.46 µM	> 28.1 µM	9.2 µM
COc1ccc(-c2n[nH]nc2-c2cc(OC)c3c(c2OC)OCO3)cc1	83.7 µM	> 100 µM	6.38 µM	> 76.3 µM	> 68 µM	> 95.6 µM	> 100 µM	–	> 92.6 µM	26.5 µM	4.86 µM	1.87 µM	0.312 µM	4.81 µM	0.885 µM	0.348 µM	4.68 µM	0.368 µM	9.69 µM	1.25 µM
Nc1ncnc2[nH]ncc12	> 100 µM	> 55.7 µM	20.4 µM	37.9 µM	4.62 µM	> 100 µM	> 100 µM	12.2 µM	> 100 µM	38.1 µM	1.3 µM	0.526 µM	0.853 µM	0.277 µM	0.744 µM	0.646 µM	0.765 µM	0.388 µM	4.04 µM	1.59 µM
CCCCNCC(=O)O[C@]1(CC)C(=O)OCc2c1cc1n(c2=O)Cc2cc3ccccc3nc2-1	> 16.2 µM	> 100 µM	4.64 µM	20.4 µM	> 39.3 µM	–	5.95 µM	2.03 µM	2.06 µM	0.877 µM	–	–	–	–	–	–	–	–	–	–
CC(CN1CCN(CCOCCO)CC1)CN1c2ccccc2Sc2ccc(Cl)cc21 (stereo not drawn)	17.1 µM	10.6 µM	5.08 µM	16 µM	13.3 µM	3.58 µM	7.27 µM	18.1 µM	36.8 µM	24.2 µM	3.86 µM	2.6 µM	1.78 µM	4.22 µM	3.36 µM	1.84 µM	2.6 µM	4.39 µM	11.5 µM	10.8 µM
Cc1ccc(C2=NOC3=c4ccccc4=CSC3=C2c2ccc([N+](=O)[O-])cc2)cc1	> 100 µM	65.3 µM	26.9 µM	> 100 µM	> 100 µM	> 100 µM	> 100 µM	> 100 µM	34 µM	53.7 µM	18.3 µM	14.3 µM	10.8 µM	95.6 µM	14.2 µM	62.3 µM	25.2 µM	31.4 µM	14 µM	17.8 µM
O=[N+]([O-])c1cccc(-c2nc3sccn3c2-c2ccnc(NCCCNS(=O)(=O)c3cccc(F)c3)n2)c1	44.8 µM	6.62 µM	30.5 µM	7.64 µM	11.6 µM	> 100 µM	> 100 µM	6.49 µM	8.22 µM	7.34 µM	2.71 µM	1.37 µM	1.56 µM	1.64 µM	2.71 µM	4.12 µM	7.83 µM	1.72 µM	1.66 µM	1.98 µM
COc1cccc(C=Nc2cc(C)ccn2)c1O.COc1cccc(C=Nc2cc(C)ccn2)c1O.[Cu]	50.4 µM	42.9 µM	43.4 µM	> 100 µM	48.8 µM	51.9 µM	44.7 µM	68.3 µM	27.2 µM	49.4 µM	19 µM	17.8 µM	22.8 µM	25.4 µM	21.4 µM	18.3 µM	20.2 µM	19.1 µM	9.25 µM	19 µM
